{
  "source": "patent US20110189166A1",
  "about": "“METHODS OF TREATING HEMORHEOLOGIC ABNORMALITIES IN MAMMALS” (priority 2010, published 2011)",
  "origin": "cited, not measured here",
  "key": {"[1]": {"tested_on": "aminophospholipid translocase (flippase)", "conditions": "by complexing a sulfhydryl group"}, "red blood cell": {"tested_on": "red blood cell", "conditions": "in vitro"}, "cows": {"tested_on": "cows", "conditions": "inorganic phosphate for 2-5 days"}, "[2]": {"tested_on": "crenated or spiculated red blood cells (echinocytes)", "conditions": "horses, after exercise; U.S. Pat. No. 4,383,997"}, "flippase": {"tested_on": "flippase", "conditions": "independent of excess intracellular calcium"}, "human erythrocytes": {"tested_on": "human erythrocytes", "conditions": "red blood cells exposed to LPA"}},
  "data": [
    {"compound": "CCN1C(=O)C=CC1=O", "note": "[NEM, N-ethylmaleimide]", "values": [
      {"measurement": "activity of aminophospholipid translocase (flippase)", "setting": "[1]", "value": "blocks the activity of aminophospholipid translocase (flippase)"}
    ]},
    {"compound": "CCCC(=O)Nc1ncnc2c1ncn2[C@@H]1O[C@@H]2COP(=O)(O)O[C@H]2[C@H]1OC(=O)CCC", "note": "[dibutyryl-cAMP]", "values": [
      {"measurement": "PS exposure", "setting": "red blood cell", "value": "prevents PS exposure"},
      {"measurement": "intracellular calcium entry", "setting": "red blood cell", "value": "inhibits intracellular calcium entry"},
      {"measurement": "reduction of red blood cell aggregation", "setting": "red blood cell", "value": "about 50%"}
    ]},
    {"compound": "O=P(O)(O)O", "note": "[inorganic phosphate]", "values": [
      {"measurement": "hemolysis after treatment", "setting": "cows", "value": "absence of hemolysis"},
      {"measurement": "time to complete recovery", "setting": "cows", "value": "14 to 21", "unit": "days"}
    ]},
    {"compound": "CC(=O)CCCCn1c(=O)c2c(ncn2C)n(C)c1=O", "note": "[pentoxyfylline]", "values": [
      {"measurement": "increase of crenated red blood cells following exercise", "setting": "[2]", "value": "inhibit the increase of crenated red blood cells following exercise"}
    ]},
    {"compound": "Lysophosphatidic acid [LPA]", "values": [
      {"measurement": "flippase inhibition", "setting": "flippase", "value": "inhibit flippase directly"},
      {"measurement": "PS exposure on red blood cells", "setting": "human erythrocytes", "value": "resulted in PS exposure"},
      {"measurement": "adherence to endothelial cells", "setting": "human erythrocytes", "value": "increased adherence to endothelial cells"},
      {"measurement": "thrombin generation", "setting": "human erythrocytes", "value": "potentiated thrombin generation"}
    ]}
  ]
}
